Assay results as given in PMC11221189, “Gut microbiota DPP4-like enzymes are increased in type-2 diabetes and contribute to incretin inactivation” (Genome Biology, 2024).
Several values for one entry are separate records, joined by “and”; a condition that tells them apart may be missing. Equal entries are not always repeated. Entries after “also recorded” stand apart in the source; their conditions may differ. Peptide text beside a SMILES is read from it. * marks the point of attachment. pNA = O=[N+]([O-])c1ccc(N*)cc1

What was measured:
pmDPP4Δ23 = pmDPP4Δ23 (Parabacteroides merdae, UniProt A0AA37KD06); assay type: biochemical; details: for Effect on pmDPP4Δ23 hydrolytic activity (in words): gpPNA hydrolysis; for EC50 pmDPP4: gpPNA substrate, non-linear fit, sitagliptin and linagliptin data did not fit (R^2 ND)
depression-like behavior = details: obesogenic diet; cited from earlier work
[1] = test system: T1, pmDPP4Δ23 (headed pmDPP4 in Table 1 and Table S1); assay: Colorimetric steady-state kinetics of gpPNA hydrolysis (0.31 to 2.5 mM) without inhibitor, 50 mM Tris-HCl pH 8.3, 37 °C, 380 nm, Lineweaver-Burk analysis.; assay type: biochemical; details: SD, n = 3; read-out: Km (mM), inhibitor 0 nM
T1 construct: N-terminal 6 x His tag; expressed from pET15b in E. coli BL21-DE3; dimer in solution
Method: (§1) The hydrolytic activity of the bacterial DPP4 enzyme was measured using Gly-Pro p-nitroanilide hydrochloride (gpPNA) (Sigma), as described for assessing hsDPP4 activity. […] Briefly, 20 µL of each cell-free supernatant was placed in triplicate in a flat 96-well plate. Two hundred microliters of the respective PNA solutions were plated in duplicate to obtain the standard curve. […] The enzymatic activity ([PNA generated (nM) / hydrolysis time (min)] / pmole enzyme) was quantified between 10 and 30 min of incubation time (linear kinetics). Three independent experiments with different purified protein batches were performed. The same protocol was followed for the murine samples (cecal content and plasma from the portal vein). In the case of the cecal content, the values of DPP4 activity were normalized by the amount of protein, quantified by the Bradford method (Bio-Rad, Hercules, CA).
Figure S3. Gliptin inhibition kinetics on pmDPP4Δ23. Lineweaver-Burk double-reciprocal (1/V and 1/S) plots showing pmDPP4Δ23 (bottom panels) and hsDPP4 (top panels) […]
(100 nM, burgundy lines) concentrations. The apparent Km was calculated respectively from inhibitor-associated data points using linear regression to find intersection point at the y-axis (1/S). V, reaction velocity (nmol PNA min-1 pmole enzyme-1); S, substrate concentration (mM gpPNA).
(1 picture or pasted object on this page, not shown here) […]

[2] = test system: T1, pmDPP4Δ23 (headed pmDPP4 in Table 1 and Table S1); assay: Overall Km for gpPNA without inhibitor, from the colorimetric kinetics at pH 8.3 and 37 °C.; assay type: biochemical; details: read-out: overall estimated Km
Method: as §1

Chain of pmDPP4Δ23 (A0AA37KD06 entry or part of it, stated change not applied): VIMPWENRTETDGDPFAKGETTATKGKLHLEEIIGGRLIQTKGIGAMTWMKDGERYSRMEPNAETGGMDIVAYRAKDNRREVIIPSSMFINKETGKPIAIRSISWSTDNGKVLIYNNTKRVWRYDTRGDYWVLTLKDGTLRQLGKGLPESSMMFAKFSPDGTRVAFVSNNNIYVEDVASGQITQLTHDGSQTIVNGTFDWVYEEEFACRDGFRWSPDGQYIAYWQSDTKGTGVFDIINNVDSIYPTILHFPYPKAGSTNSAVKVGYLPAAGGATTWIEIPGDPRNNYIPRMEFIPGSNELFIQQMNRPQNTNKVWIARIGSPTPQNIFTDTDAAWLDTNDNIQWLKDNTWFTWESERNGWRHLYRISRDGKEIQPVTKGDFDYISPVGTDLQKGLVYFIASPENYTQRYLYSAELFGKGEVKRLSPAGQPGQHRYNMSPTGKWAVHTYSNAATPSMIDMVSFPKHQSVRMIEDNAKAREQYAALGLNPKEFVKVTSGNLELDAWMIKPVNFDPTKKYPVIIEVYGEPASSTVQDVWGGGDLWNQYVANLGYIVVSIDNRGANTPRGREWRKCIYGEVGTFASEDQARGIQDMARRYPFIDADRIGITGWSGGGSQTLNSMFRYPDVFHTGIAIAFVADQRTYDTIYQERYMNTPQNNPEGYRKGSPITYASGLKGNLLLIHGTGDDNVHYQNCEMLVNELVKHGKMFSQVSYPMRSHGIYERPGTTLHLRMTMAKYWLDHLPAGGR

Row | Compound | Effect on pmDPP4Δ23 hydrolytic activity (in words) (pmDPP4Δ23) | EC50 pmDPP4 (pmDPP4Δ23) | further results
1 | CC#CCn1c(N2CCC[C@@H](N)C2)nc2c1c(=O)n(Cc1nc(C)c3ccccc3n1)c(=O)n2C [Linagliptin, linagliptin] | not inhibited; also recorded: almost null effect; also recorded: minimally inhibited |  | 
2 | N#C[C@@H]1C[C@@H]2C[C@@H]2N1C(=O)[C@@H](N)C12CC3CC(CC(O)(C3)C1)C2 [Saxagliptin, saxagliptin] |  | nanomolar range | 
3 | N[C@@H](CC(=O)N1CCn2c(nnc2C(F)(F)F)C1)Cc1cc(F)c(F)cc1F [Sitagliptin, sitagliptin] | not inhibited; also recorded: almost null effect; also recorded: minimally inhibited |  | Depression-like behavior associated with increased systemic DPP4 activity (depression-like behavior): counteracted
4 | N#C[C@@H]1CCCN1C(=O)CNC12CC3CC(CC(O)(C3)C1)C2 [Vildagliptin, vildagliptin] |  | nanomolar range | 
5 | NCC(=O)N1CCC[C@H]1C(=O)Nc1ccc([N+](=O)[O-])cc1 [gpPNA, Gly-Pro p-nitroanilide] (H-Gly-Pro-pNA) |  |  | Km [1]: 1.6 mM and 1.79 mM and 1.66 mM and 1.46 mM; Km [2]: 1630 µM
